How the values were obtained:
human sebocytes = conditions: cited from earlier work
[1] = tested on: caco-2 cells (human intestinal epithelial cells); test: M30-ApoptosisSense ELISA (cytokeratin 18) apoptosis rate in intestinal epithelial cells; type: cell-based; conditions: p<0.05, FIG. 1
Experimental: The apoptosis rate in epithelial cells was measured by the M30-ApoptosisSense ELISA
(PEVIVA, Bromma, Sweden), detecting cytokeratin 18 with a specific monoclonal M30 antibody, whereas before cytokeratin 18 was cleaved by the enzyme caspase. The caco-2 cells (human intestinal epithelial cells) grew semiconfluent in cell culture flasks, before plating them on a 6 well plate. One plate was stimulated with 10^−5 and 10^−6 M KdPT solved in routine medium (SFM, white column), the control plate was stimulated with the routine-medium alone.

[2] = tested on: human dermal microvascular endothelial cells (HMEC); test: M30-ApoptosisSense ELISA (cytokeratin 18) apoptosis rate in HMEC; type: cell-based
Experimental: To further elucidate the impact of KdPT administration on apoptosis in a different human cell line, additional experiments were performed in human dermal microvascular endothelial cells (HMEC) which are endothelial cells. The apoptosis rate in epithelial cells was measured by the M30-ApoptosisSense ELISA (PEVIVA, Bromma, Sweden), detecting cytokeratin 18 with a specific monoclonal M30 antibody, whereas before cytokeratin 18 was cleaved by the enzyme caspase. The HMEC cells grew semiconfluent in cell culture flasks, before plating them on a 6 well plate. One plate was stimulated with 10-5 and 10-6 M KdPT solved in routine medium (SFM, white column), the control plate was stimulated with the routine-medium alone.

experimental colitis = conditions: both colitis models (DSS, IL-10 gene-deficient mice); cited from earlier work
colonic epithelial cells = conditions: cited from earlier work
melanogenesis = conditions: in vitro; cited from earlier work
murine DSS colitis = test: Epithelial apoptosis rate in murine DSS-colitis (anti-active Caspase 3 staining of colon sections); type: in vivo; conditions: DSS-treated WT mice, KdPT 10 μg/day/animal i.p. daily, vs PBS control, P<0.05
Experimental: To further evaluate the impact of KdPT on the epithelial apoptosis rate in vivo, the murine DSS colitis was performed. Dextran sodium sulfate (DSS)-induced colitis was accomplished as described in Bettenworth Am J Pathol 2011. WT mice were given 3% DSS (ICN Biomedicals Inc., Eschwege, Germany) in drinking water for 5 days, and disease activity was monitored daily by body weight measurement. Afterwards, the mice received regular drinking water again to monitor the improvement in inflammation. PBS-diluted KdPT (10 μg/day/animal; Bachem Americas Inc., Torrance, Calif.) was given daily by intraperitoneal (i.p.). injection until the end of the experiment. Control mice received PBS only.
At the end of the experiment, the mice were sacrificed and the colons removed. The colons were opened, embedded in Tissue-Tek O.C.T. (Sukura Finetek Europe, Zoeterwoude, The Netherlands), and kept frozen at −80° C. until further use. […] Immunhistological stainings were analyzed by two blinded investigators.
To assess apoptosis rate, the number of anti-active Caspase 3 positive cells per total crypt epithelial cells was counted. The number of anti-active Caspase 3 positive cells in colonic tissue was assessed as a […], determined after KdPT administration in DSS-treated mice.

## (I)Lys-(d)Pro-(I)Thr [KdPT]
Human sebocytes
  IL-1(beta)-mediated cytokine expression and signaling: suppresses
[1]
  apoptosis rate on costimulation with KdPT (in words): significant reduction of the apoptosis rate
[2]; HMEC costimulated with KdPT, 24 h incubation, control 1150.5 U/I
  apoptosis rate (M30 ELISA, cytokeratin 18): 965.9 U/I
[2]; HMEC, 10-5 and 10-6 M KdPT, 24 h incubation, vs control plate, p=0.002
  reduction of apoptosis rate: 19.2%
[2]; HMEC, FIG. 2
  apoptosis rate on costimulation with KdPT (in words): significant reduction of the apoptosis rate
Experimental colitis
  severity of inflammation: markedly reduced severity of inflammation
Colonic epithelial cells; after stimulation with interferon-γ/tumor necrosis factor-α
  transepithelial electrical resistance: improved transepithelial electrical resistance
Colonic epithelial cells; colonic epithelial cells
  closure of wounds: accelerated closure of wounds
  proliferation: increased proliferation
melanogenesis
  melanogenesis: did not affect melanogenesis
Murine DSS colitis
  number of anti-active Caspase 3 positive cells per total crypt epithelial cells: dramatically decreased

From patent US9156881B2, “Tripeptide KDPT for antiapoptotic treatment” (WESTFAELISCHE WILHELMS-UNIVERSITAET MUENSTER, priority 2011, dated 2015)
